From PMC6476959, “Novel 3,4-Dihydroisocoumarins Inhibit Human P-gp and BCRP in Multidrug Resistant Tumors and Demonstrate Substrate Inhibition of Yeast Pdr5” (Frontiers in Pharmacology, 2019)
“And” between values parts separate entries of the source, which are not always exact repeats. Identical values can stand only once. “Also recorded” adds a separate entry of the source.

How the values were obtained:
A549 cells = assay: CellTiter-Glo cell viability assay (cytotoxicity), A549; format: cell-based, human; settings: Homo sapiens, A549; 48 h, mean ± SEM
Procedure: (§1) The human lung adenocarcinoma cell line A549 was cultured in DMEM medium supplemented with 10% fetal bovine serum (FBS), 100 U/mL penicillin and 100 μg/mL streptomycin. P-gp-expressing human colon adenocarcinoma cells HCT-15 were cultured in RPMI 1640 medium supplemented with 10% FBS, 100 U/mL penicillin and 100 μg/mL streptomycin. BCRP-expressing MCF-7/MX human breast adenocarcinoma cells were cultured in DMEM medium supplemented with 10% FBS, 100 U/mL penicillin and 100 μg/mL streptomycin. MRP1-expressing H69AR human small cell lung cancer cells were cultured in RPMI 1640 medium (ATCC modification) supplemented with 20% FBS, 100 U/mL penicillin and 100 μg/mL streptomycin. All cancer cell lines employed have been systematically characterized regarding their respective ABC transporter expression profile ([Sachs et al., 2019]).
(§2) Cytotoxic activity of test compounds was analyzed after 48 h using the CellTiter-Glo Luminescent Cell Viability Assay published previously ([Weber et al., 2017]) in 384-well plates with the following cell densities: A549, MCF-7/MX: 2 × 10^3 cells/well; HCT-15: 3 × 10^3 cells/well; H69AR: 5 × 10^3 cells/well. Pipetting was conducted with the CyBi-Well 96-channel simultaneous pipettor (Analytik Jena AG, Jena, Germany). For generation of dose-response curves and calculation of IC50 values, the four-parameter logistic model was applied.

HCT-15 cells = assay: CellTiter-Glo cell viability assay (cytotoxicity), HCT-15; format: cell-based; settings: Homo sapiens, 48 h, P-gp expressing, mean ± SEM
Procedure: as §1, §2

MCF-7/MX cells = assay: CellTiter-Glo cell viability assay (cytotoxicity), MCF-7/MX; format: cell-based; settings: Homo sapiens, MCF7/MX; 48 h, BCRP-expressing, mean ± SEM
Procedure: as §1, §2

H69AR cells = assay: CellTiter-Glo cell viability assay (cytotoxicity), H69AR; format: cell-based; settings: Homo sapiens, 48 h, MRP1-expressing, mean ± SEM
Procedure: as §1, §2

P-gp = biological target: T1, P-gp (Homo sapiens, UniProt P08183); assay: P-gp transport assay (calcein-AM) in HCT-15 cells; format: cell-based
T1 construct: endogenous in cells; host or cells: HCT-15 human colon adenocarcinoma cells
Procedure: The transport of calcein-AM by P-gp and its modulation by test compounds was analyzed in the P-gp-expressing HCT-15 cell line. 5 × 10^4 cells were seeded in black 96-well plates and incubated at 37°C and 5% CO2 for 24 h. The culture medium was removed and replaced by Hank’s balanced salt solution supplemented with 10 mM HEPES. Test compounds, 2.5 μM PSC833 (positive control) or 0.5% DMSO (negative control) were added in triplicates and incubated for 30 min at 37°C and 5% CO2. The substrate calcein-AM was added (final concentration 0.5 μM) and the fluorescence (excitation 485 nm, emission 520 nm) was measured over 3 h with the Infinite m1000 pro microplate reader (Tecan Group AG, Männedorf, Switzerland) at 37°C. The transport activity of P-gp was analyzed by determining the slope of the linear part of the fluorescence-time curve (0–30 min) using linear regression. Normalization of the data to PSC833 (100% inhibition) and DMSO (0% inhibition) was performed.

BCRP = biological target: T2, BCRP (Homo sapiens, UniProt Q9UNQ0); assay: BCRP transport assay (Hoechst 33342) in MCF-7/MX cells; format: cell-based
T2 construct: endogenous in cells; host or cells: MCF-7/MX human breast adenocarcinoma cells (mitoxantrone-selected)
T2 sequence (Q9UNQ0 1-655): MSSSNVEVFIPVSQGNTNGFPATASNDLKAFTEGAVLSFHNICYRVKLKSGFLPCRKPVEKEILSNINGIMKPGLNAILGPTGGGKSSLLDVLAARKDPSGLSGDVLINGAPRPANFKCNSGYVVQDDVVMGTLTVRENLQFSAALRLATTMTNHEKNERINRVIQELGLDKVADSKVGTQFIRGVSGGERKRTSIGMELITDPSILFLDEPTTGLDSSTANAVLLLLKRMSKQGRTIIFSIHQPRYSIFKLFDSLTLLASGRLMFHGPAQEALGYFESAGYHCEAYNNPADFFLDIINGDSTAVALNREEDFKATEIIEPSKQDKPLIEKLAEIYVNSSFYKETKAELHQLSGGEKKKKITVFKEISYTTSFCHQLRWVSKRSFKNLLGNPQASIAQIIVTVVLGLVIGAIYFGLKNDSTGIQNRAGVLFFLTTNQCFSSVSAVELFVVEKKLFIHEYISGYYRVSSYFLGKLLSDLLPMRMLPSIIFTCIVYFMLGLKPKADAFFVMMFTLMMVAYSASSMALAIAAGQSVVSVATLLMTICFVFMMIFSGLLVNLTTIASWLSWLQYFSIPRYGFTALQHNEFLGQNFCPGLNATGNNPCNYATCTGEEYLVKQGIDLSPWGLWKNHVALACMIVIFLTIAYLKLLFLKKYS
Procedure: Breast cancer resistance protein transport activity was determined in the BCRP-expressing MCF-7/MX cell line. Hoechst 33342 was applied as transporter substrate and 1 μM Ko143 as positive control or 0.5% DMSO as negative control and the assay was performed according to the P-gp assay. Fluorescence was measured at an excitation wavelength of 355 nm and emission wavelength of 460 nm. The transport activity of BCRP was analyzed by determining the plateau of the fluorescence-time curve by using non-linear regression (one-phase exponential fit). Normalization of the data to Ko143 (100% inhibition) and DMSO (0% inhibition) was performed.

Pdr5 [1] = biological target: T3, Pdr5 (Saccharomyces cerevisiae, UniProt P33302); assay: Pdr5 transport assay (R6G) in plasma membrane preparations; format: biochemical; design: R6G transport activity of Pdr5 WT inhibited to (initial screen): dose or concentration left out as unconfirmed; settings: for R6G transport activity of Pdr5 WT inhibited to (initial screen): relative to Pdr5 WT without compound
T3 construct: effect on (A) the transport activity of Pdr5 WT and (B) their effect on the ATPase activity; made in house; host or cells: S. cerevisiae YRE1001 (pdr1-3 background), isolated plasma membranes
Procedure: (§3) Saccharomyces cerevisiae cells expressing Pdr5 WT or the E1036Q (EQ) mutant were cultured to an OD600 of 1.5 in YPD-media at 25°C. The nitrogen source was replenished by addition of a 10th volume of 5x YP (50 g/l yeast extract, 100 g/l peptone). The cells were grown to an OD of 3.5 and harvested (5000 ×g at 4°C for 15 min). The isolation of Pdr5 containing PMs was performed as described ([Kolaczkowski et al., 1996]; [Ernst et al., 2008]).
Active transport of R6G was measured according to the protocol developed by [Kolaczkowski et al. (1996)], using a Tecan Infinite 200 pro reader (Tecan Group AG, Männedorf, Switzerland). 6 μg of the isolated PM containing Pdr5 were resuspended in 200 μl of the transport buffer (50 mM HEPES, pH 7.0, 5 mM MgCl2, 10 mM NaN3, and 150 nM R6G) and incubated in a black 96-well plate at 30°C. 5 μl of the test compound were added at the indicated concentrations. Active transport was initiated by the addition of 10 μl 200 mM ATP and fluorescence intensity was recorded in 15 s-intervals for 20 min (excitation wavelength at 524 nm, emission wavelength at 558 nm, number of flashes 30, integration time 2000 μs). IC50 determination was performed with a serial dilution of the test compounds.

Pdr5 [2] = biological target: T3, Pdr5; assay: Pdr5 ATPase assay (oligomycin-sensitive) in plasma membrane preparations; format: biochemical; settings: highest concentrations (10 mM), in comparison to Pdr5 WT in the absence of any compound
Procedure: as §3
Oligomycin (OM)-sensitive ATPase activity was measured from 0.8 μg PM containing Pdr5 incubated with 2 mM ATP, 5 mM MgCl2 in 270 mM TRIS-glycine buffer (pH 9.5) and 2.5 μl of the test compounds or DMSO as a control in a total volume of 100 μl. To reduce the background activities, 0.2 mM ammonium molybdate, 10 mM NaN3 and 50 mM KNO3, respectively, were added ([Dufour et al., 1988]; [Goffeau and Dufour, 1988]). In a second assay, OM (20 μg/ml) was added to an otherwise identical setup. After incubation at 30°C for 20 min, the reaction was stopped by adding 25 μl of the reaction to 175 μl 40 mM H2SO4. The amount of released inorganic phosphate was determined by a colometric assay in 96-well plates ([Goffeau and Dufour, 1988]; [Decottignies et al., 1994]; [Wada et al., 2002]). The difference of both assays ( ± OM) corresponds to the specific ATPase activity of Pdr5 ([Ernst et al., 2008]).

[3] = tested on: P-gp expressing HCT-15 cells; assay: Sensitization of HCT-15 cells to doxorubicin (co-treatment, cell viability); format: cell-based, human
Procedure: as §2
(§4) The ability of identified inhibitors of P-gp and BCRP to sensitize HCT-15 or MCF-7/MX cells to chemotherapy was analyzed by co-treatment with test compounds and doxorubicin or mitoxantrone, respectively. Cells were incubated with a serial dilution of the chemotherapeutic drug alone or in combination with fixed concentrations of the test compounds or positive controls (2.5 μM PSC833 and 1 μM Ko143, respectively). Fold change of drug IC50 was calculated with the formula IC50 (drug alone)/IC50 (drug with modulator).

[4] = tested on: BCRP-expressing MCF-7/MX cells; assay: Sensitization of MCF-7/MX cells to mitoxantrone (co-treatment, cell viability); format: cell-based, human
Procedure: as §2, §4

[5] = human, P-gp-expressing HCT-15 cells, probe calcein-AM (0.5 μM), normalized to 2.5 μM PSC833 (100%) and DMSO (0%), read-out: Relative inhibition of P-gp

T1 sequence (P08183 whole entry): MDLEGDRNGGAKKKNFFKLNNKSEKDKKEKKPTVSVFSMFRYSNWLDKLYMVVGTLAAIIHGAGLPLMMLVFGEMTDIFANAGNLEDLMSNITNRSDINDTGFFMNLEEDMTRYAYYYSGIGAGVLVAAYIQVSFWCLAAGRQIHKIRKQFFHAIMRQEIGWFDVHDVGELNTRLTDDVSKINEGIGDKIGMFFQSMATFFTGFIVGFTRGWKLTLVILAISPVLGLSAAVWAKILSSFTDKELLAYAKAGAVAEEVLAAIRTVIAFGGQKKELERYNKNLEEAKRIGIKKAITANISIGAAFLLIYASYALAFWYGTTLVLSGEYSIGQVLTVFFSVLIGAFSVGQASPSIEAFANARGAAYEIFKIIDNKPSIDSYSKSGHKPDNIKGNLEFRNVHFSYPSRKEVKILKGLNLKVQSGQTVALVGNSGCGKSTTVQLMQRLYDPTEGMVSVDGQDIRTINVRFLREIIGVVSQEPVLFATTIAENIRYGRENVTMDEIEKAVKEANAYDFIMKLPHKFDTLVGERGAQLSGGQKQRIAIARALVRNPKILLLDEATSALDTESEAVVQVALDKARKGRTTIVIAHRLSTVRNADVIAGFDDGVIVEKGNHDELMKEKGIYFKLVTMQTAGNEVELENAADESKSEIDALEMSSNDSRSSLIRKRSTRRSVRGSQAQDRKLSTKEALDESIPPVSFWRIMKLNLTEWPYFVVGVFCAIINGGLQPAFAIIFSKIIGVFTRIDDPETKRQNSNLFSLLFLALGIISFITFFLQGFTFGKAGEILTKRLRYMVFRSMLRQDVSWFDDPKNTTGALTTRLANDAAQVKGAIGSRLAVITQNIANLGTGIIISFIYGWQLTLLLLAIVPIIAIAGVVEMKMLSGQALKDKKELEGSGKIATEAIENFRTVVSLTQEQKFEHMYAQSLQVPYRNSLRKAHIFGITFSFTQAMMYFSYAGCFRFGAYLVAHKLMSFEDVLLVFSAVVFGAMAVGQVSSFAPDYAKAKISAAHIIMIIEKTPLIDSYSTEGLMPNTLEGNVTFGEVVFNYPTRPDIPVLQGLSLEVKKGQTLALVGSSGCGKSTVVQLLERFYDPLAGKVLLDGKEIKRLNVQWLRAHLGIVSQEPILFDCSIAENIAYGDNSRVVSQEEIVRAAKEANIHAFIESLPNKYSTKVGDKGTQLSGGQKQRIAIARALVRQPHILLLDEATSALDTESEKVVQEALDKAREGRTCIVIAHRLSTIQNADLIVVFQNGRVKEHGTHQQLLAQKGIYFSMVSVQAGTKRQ
T3 sequence (P33302 whole entry): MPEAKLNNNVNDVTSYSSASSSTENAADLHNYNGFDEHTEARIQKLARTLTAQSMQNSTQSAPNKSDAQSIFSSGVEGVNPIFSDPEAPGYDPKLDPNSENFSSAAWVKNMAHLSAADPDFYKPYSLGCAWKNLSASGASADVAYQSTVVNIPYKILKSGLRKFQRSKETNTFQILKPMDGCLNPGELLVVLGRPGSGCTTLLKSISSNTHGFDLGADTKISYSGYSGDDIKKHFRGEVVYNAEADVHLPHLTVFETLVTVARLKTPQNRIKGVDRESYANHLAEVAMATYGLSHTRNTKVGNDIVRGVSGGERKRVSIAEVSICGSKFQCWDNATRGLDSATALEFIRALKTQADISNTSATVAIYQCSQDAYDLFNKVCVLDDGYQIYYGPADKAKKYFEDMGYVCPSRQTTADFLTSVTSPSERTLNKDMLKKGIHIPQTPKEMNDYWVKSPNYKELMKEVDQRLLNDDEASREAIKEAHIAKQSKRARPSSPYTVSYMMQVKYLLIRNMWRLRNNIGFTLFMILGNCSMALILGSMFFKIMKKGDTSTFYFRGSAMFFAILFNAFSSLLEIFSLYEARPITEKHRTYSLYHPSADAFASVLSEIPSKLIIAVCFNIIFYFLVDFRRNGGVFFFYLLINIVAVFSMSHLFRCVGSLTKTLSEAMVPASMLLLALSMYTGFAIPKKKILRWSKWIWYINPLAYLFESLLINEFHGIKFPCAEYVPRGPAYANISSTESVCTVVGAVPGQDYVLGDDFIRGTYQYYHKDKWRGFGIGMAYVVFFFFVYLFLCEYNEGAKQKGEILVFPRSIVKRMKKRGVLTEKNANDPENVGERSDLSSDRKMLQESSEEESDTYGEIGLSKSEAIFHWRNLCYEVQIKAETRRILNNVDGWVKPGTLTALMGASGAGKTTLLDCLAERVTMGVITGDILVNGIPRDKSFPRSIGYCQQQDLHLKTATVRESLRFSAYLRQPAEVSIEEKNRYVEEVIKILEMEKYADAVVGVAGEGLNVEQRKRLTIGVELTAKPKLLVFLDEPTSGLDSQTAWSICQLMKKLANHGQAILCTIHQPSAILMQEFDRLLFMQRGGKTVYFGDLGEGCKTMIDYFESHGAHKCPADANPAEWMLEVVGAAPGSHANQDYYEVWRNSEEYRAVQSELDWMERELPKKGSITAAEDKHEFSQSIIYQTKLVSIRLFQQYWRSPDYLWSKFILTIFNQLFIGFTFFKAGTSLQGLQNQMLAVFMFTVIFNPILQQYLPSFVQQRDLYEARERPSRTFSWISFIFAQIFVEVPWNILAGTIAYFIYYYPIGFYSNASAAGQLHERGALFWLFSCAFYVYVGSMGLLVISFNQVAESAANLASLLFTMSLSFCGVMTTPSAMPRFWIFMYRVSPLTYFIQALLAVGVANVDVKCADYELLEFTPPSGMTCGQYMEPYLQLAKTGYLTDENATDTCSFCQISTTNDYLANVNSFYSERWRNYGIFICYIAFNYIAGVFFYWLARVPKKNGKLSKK

Compound | IC50 (A549 cells) | IC50 (HCT-15 cells) | IC50 (MCF-7/MX cells) | IC50 (H69AR cells) | Inhibition of BCRP (in words) (BCRP) | ATPase activity of Pdr5 WT inhibited to (initial screen) (Pdr5 [2]) | other results
COc1cc(O)c2c(c1)C[C@@H](C)OC2=O [6-Methoxymellein (3), 6-methoxymellein] | > 100 µM | > 100 µM | > 100 µM | > 100 µM | no inhibitory activity could be observed | – | Inhibition of P-gp (in words) (P-gp): did not differ significantly from those of derivative 14; R6G transport activity of Pdr5 WT inhibited to (initial screen) (Pdr5 [1]; listed as 3): no effect; R6G transport activity of Pdr5 WT inhibited to (initial screen) (Pdr5 [1]; listed as 6-methoxymellein (3)): did not interfere with Pdr5-mediated R6G transport; ATPase activity of Pdr5 WT inhibited to (initial screen) (Pdr5 [2]; listed as 3): nearly no effect; ATPase activity of Pdr5 WT inhibited to (initial screen) (Pdr5 [2]; listed as 6-methoxymellein (3)): no inhibitory effect
COc1cc(O)c2c(c1)C[C@H](CCO[Si](C)(C)C(C)(C)C)OC2=O [(R)-19] | 47.5 ± 3.2 µM | 57.1 ± 7.5 µM | 28.1 ± 0.7 µM | > 100 µM | – | – | inhibition at 20 μM (P-gp; [5]): > 20%; IC50 (Pdr5 [1]): 26 ± 3.5 µM; R6G transport activity of Pdr5 WT inhibited to (initial screen) (Pdr5 [1]): inhibit the transport of R6G completely; also recorded: inhibit the transport activity of Pdr5 WT completely
COc1cc(O)c2c(c1)C[C@H](CCO)OC2=O [(R)-19a] | > 100 µM | > 100 µM | > 100 µM | > 100 µM | completely abolished inhibitory ability | nearly no effect; also recorded: no inhibition of the ATPase activity was observed | –
COc1cc(O)c2c(c1)C[C@@H](CCO[Si](C)(C)C(C)(C)C)OC2=O [(S)-19] | 42 ± 3.9 µM | > 100 µM | 33.5 ± 7.5 µM | 86.8 ± 9.2 µM | – | – | inhibition at 10 μM (P-gp; human, P-gp-expressing HCT-15 cells, probe calcein-AM (0.5 μM), 10 μM, normalized to 2.5 μM PSC833 (100%) and DMSO (0%), read-out: Relative inhibition of P-gp): 37.1 ± 2.9%; inhibition at 20 μM (P-gp; [5]): > 20%; IC50 (Pdr5 [1]): 5.3 ± 0.6 µM; R6G transport activity of Pdr5 WT inhibited to (initial screen) (Pdr5 [1]): inhibit the transport of R6G completely; also recorded: inhibit the transport activity of Pdr5 WT completely
COc1cc(O)c2c(c1)C[C@@H](CCO)OC2=O [(S)-19a] | > 100 µM | > 100 µM | 89.8 ± 4.9 µM | > 100 µM | completely abolished inhibitory ability | nearly no effect; also recorded: no inhibition of the ATPase activity was observed | –
COc1cc2c(c(OC)c1)C(=O)OCC2 [Compound 14a] | > 100 µM | > 100 µM | > 100 µM | > 100 µM | did not inhibit BCRP | – | Relative inhibition of P-gp, span over the tested concentrations (P-gp; different concentrations, normalized to PSC833): up to 10%
COc1cc(O)c2c(=O)oc3ccccc3c2c1 [Compound 21] | > 50 µM | > 50 µM | > 50 µM | > 50 µM | – | 50% and 54% | Relative inhibition rate of P-gp (P-gp; highest concentration used): 20.0 ± 1.2%
COc1cccc2c1C(=O)c1c(O)c3c(c(O)c1C2=O)C[C@@](O)(C(=O)CO)C[C@@H]3O[C@H]1C[C@H](N)[C@H](O)[C@H](C)O1 [Doxorubicin, doxorubicin, reference compound] | – | – | – | – | – | – | IC50 ([3]; Homo sapiens, HCT-15, doxorubicin alone, 48 h): 8.5 ± 0.7 µM; Fold change of doxorubicin IC50 ([3]; doxorubicin alone (reference)): 1.00
O=C1c2c(O)ccc(O)c2C(=O)c2c(NCCNCCO)ccc(NCCNCCO)c21 [Mitoxantrone, mitoxantrone, reference compound] | – | – | – | – | – | – | IC50 ([4]; Homo sapiens, MCF7/MX, mitoxantrone alone, 48 h): 19.6 ± 2.4 µM; Fold change of mitoxantrone IC50 ([4]; mitoxantrone alone (reference)): 1.00
